# Measured values reported in patent publication US10532036B2, “Combination composition” (AFT Pharmaceuticals Ltd, priority 2004, dated 2020).
# Where two headings read alike, the source gives them in different places.
# Key:
# [1] = system: pain following wisdom tooth extraction under local anaesthesia; experiment: pilot study using a dental pain model, visual analogue scale pain scores; type: in vivo, patients; settings: VAS score, calculated from the trial of Example 5, lower = less pain
# Procedure: Pain scores at rest and on activity were measured by visual analogue scales which were used to derive an area-under-the curve (AUC) pain score. A lower AUC represents better pain relief.
# A lower VAS score is consistent with less pain due to better pain relief. […] Pain scores were calculated as means over the first dose interval rather than AUC values to allow comparison with literature values for paracetamol in the dental pain model.
# [2] = system: postoperative pain after third molar surgery; settings: VAS, paracetamol 1000 mg, RA Seymour et al 2003, cited from earlier work
SMILES,Mean Pain Score at Rest (over first dose interval) [1] [mm],Mean Pain Score at Rest ([2]; 0-30 minutes),Mean Pain Score at Rest ([2]; over 4 hours) [mm]
CC(C)Cc1ccc(C(C)C(=O)O)cc1 (stereo not drawn) [Ibuprofen],28,–,–
CC(=O)Nc1ccc(O)cc1 [Paracetamol],–,46-48 mm,42
